Reference: PMC9850094, “Chemical synthesis of a reported p47phox/p22phox inhibitor and characterization of its instability and irreproducible activity” (Frontiers in Pharmacology, 2023)
Where no end group is shown, it is not given here. TAMRA = carboxytetramethylrhodamine label; Cy5 = cyanine 5 label

How the values were obtained:
[1] = target: T1, p47phox^SH3A−B (human His-tagged p47phox^151−286) (Homo sapiens, UniProt P14598); assay: Fluorescence polarization (FP) competition assay; assay type: binding; conditions: for Ki: over 2–20 min
T1 construct: human His-tagged p47phox^151−286
T1 sequence (P14598 151-286): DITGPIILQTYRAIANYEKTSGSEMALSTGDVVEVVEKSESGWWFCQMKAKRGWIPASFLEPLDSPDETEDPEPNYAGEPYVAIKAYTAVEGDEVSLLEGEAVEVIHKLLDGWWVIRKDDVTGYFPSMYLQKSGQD
Procedure: Synthesized compounds were then tested for their ability to inhibit the interaction between p47phox^SH3A−B and the fluorescent peptide probes in 1×HBST (2% DMSO). The non-fluorescent p22phox^151−162 peptide (Sequence: Ac-[…]-NH2) was used as a control. […] FP values were fitted to the equation Y = Bottom + (Top-Bottom)/{1 + 10^[(LogIC50-X)*HillSlope]}, where X is the logarithmic value of the compound concentration. Hereby, the IC50 value was obtained, which together with the K d value, probe and p47phox^SH3A−B concentrations was used to calculate the theoretical competitive inhibition constant, the K i value. […] Here, 5 and 8 µM of p47phox^SH3A−B concentration was used for Cy5-p22phox^149−162 and TAMRA-p22phox^151−162, respectively.

NOX2 [2] = target: T2, NOX2 (Homo sapiens, UniProt P04839); assay: NOX2 cell-based assay (WST1, PMA-activated PLB-985 cells); conditions: PMA-stimulated differentiated PLB-985 cells, superoxide (WST1)
T2 construct: endogenous in cells
T2 sequence (P04839 2-570 limits assumed): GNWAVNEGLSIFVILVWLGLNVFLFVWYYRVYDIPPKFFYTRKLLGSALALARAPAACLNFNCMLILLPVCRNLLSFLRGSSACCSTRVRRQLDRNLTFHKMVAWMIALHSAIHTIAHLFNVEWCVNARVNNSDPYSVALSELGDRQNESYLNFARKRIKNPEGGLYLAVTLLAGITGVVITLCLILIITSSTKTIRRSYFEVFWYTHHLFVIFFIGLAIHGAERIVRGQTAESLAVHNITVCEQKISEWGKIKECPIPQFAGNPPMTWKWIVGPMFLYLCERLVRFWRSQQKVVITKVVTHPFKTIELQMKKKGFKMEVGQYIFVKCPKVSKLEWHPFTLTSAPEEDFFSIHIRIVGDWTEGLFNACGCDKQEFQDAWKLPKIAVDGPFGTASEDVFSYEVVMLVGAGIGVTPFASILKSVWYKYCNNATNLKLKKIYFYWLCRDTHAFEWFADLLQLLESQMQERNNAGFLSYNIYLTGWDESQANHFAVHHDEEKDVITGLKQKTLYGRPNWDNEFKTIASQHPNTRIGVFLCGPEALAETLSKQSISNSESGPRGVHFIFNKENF
T2 sequence (P13498 2-195 partner limits assumed): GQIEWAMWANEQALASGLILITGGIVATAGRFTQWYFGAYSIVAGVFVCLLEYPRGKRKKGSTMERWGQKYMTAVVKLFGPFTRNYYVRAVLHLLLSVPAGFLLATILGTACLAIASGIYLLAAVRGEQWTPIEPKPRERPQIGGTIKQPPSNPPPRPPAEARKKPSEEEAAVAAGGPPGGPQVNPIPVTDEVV
Procedure: The assay measures extracellular superoxide generated by PMA-activated NOX2 in PLB-985 cells using the cell-impermeable tetrazolium salt WST1 as probe ([Tan and Berridge, 2000]). […] NOX2 was activated by addition of phorbol-12-myristate-13-acetate PMA (10 nM final). Absorbance (OD440) was measured with a Spectramax Paradigm reader (Molecular Devices) for 3 h. To graph the data, the rate of superoxide was calculated for the first hour.

p47phox^SH3A−B = target: T3, p47phox^SH3A−B (Homo sapiens, UniProt P14598); assay: Covalent binding assay (LC−MS); conditions: 15 min
T3 sequence (P14598 151-286): T1 sequence (P14598 151-286)
Procedure: LC−MS spectra were obtained using the same LC–MS system, solvents, and gradient as for the chemical stability assay, but here the LC–MS was installed with a Poroshell C18 reverse-phase column (Agilent, Poroshell, 300SB-C18, 2.1 × 75 mm). Injection volume was 10 µL and the protein eluted at 3.2 min.
Mass source parameters: Ion polarity, positive mode; drying gas flow, 12 L/min at 250 °C; nebulizer, 35 psig; VCap, 3000 V; Fragmentor, 70 V; mass scan range, 100–2000 m/z. Mass peak deconvolution was carried as described in literature (Winkler, 2010) (https://www.bioprocess.org/esiprot/esiprot_form.php). (A) LC–MS […]
corresponding to the theoretical MW of p47phox SH3A–B (17300.38 Da). (B) LC–MS data of 0.2 mg/mL […]
17300.3 Da and another (see red arrows) is a protein adduct with MW of 17421.9 ± 0.29 Da (ΔMW relative to […]
p47phoxSH3A–B is 122 Da).
MW of 17574.0 Da ± 0.23 Da (ΔMW relative to p47phoxSH3A–B is 274 Da corresponding to an ebselene-protein […]
with p47phoxSH3A–B. Similar to a phenolic Mannich base, the reaction involves an LMH001-derived quinone methide intermediate that reacts with nucleophiles from the protein leading to a +122 Da protein adduct.
(1 picture or pasted object on this page, not shown here)

[3] = test system: p47phox/p22phox interaction; set-up: method as in Smith et al., 2012; conditions: ref Smith et al., 2012; cited from earlier work
SH3A−B domain of p47phox = target: SH3A−B domain of p47phox; set-up: method as in Garsi et al., 2022; conditions: ref Garsi et al., 2022; read-out: Kd (SPR); cited from earlier work
[4] = Chemical stability assay (LC−MS); assay type: physicochemical
Procedure: A binary solvent system of buffer A (H2O/acetonitrile (MeCN)/formic acid, 95:5:0.1 v/v%) to buffer B (MeCN/formic acid, 99.9:0.1 v/v%) and a flow rate of 1 mL/min was used. Injection volume was 5 µL. Total sample run time was 6 min, and the percentage of buffer B increases from 0% to 100% during 0.25–4.25 min, maintains at 100% until 5 min, then decreases to 0% at 5.10 min, and stays at 0% until 6 min.

GST-p47phox^SH3A−B = test system: GST-p47phox^SH3A−B; set-up: method as in Fan et al., 2022; conditions: GST-p47phox^SH3A−B / FITC-labelled p22phox^151-162 peptide, ref Fan et al., 2022, cited from earlier work
NOX2 [5] = test system: NOX2; set-up: method as in Fan et al., 2022; conditions: COS-phox cells activated by PMA; ref Fan et al., 2022; read-out: IC50, NOX2 superoxide inhibition; cited from earlier work
[6] = set-up: method as in Fan et al., 2022; conditions: mice, iv injection; ref Fan et al., 2022; cited from earlier work
[7] = target: T4, p47phox^SH3A-B (human His-tagged p47phox^151-286) (human, UniProt P14598 151-286); assay: FP; 1×HBST
T4 chain: T1 sequence (P14598 151-286)

[8] = target: T4, p47phox^SH3A-B (human His-tagged …); assay: FP; in water
[9] = tested as isolated compounds, 1×HBST, Cy5 or TAMRA probe, 2 or 20 min

Ac-PPTNPPPRPPAE-NH2 [p22phox^151–162]
Ki ([1]; 1×HBST, probe Cy5-p22phox^149–162): 14 to 22 µM | Ki ([1]; 1×HBST, probe TAMRA-p22phox^151–162): 17 to 31 µM | Ki ([1]; water, probe Cy5-p22phox^149–162): 170 to 220 µM | Ki ([1]; water, probe TAMRA-p22phox^151–162): 140 to 155 µM

O=C(O)c1ccc(O)c(CO)c1 [compound 13]
Activity in the FP assay [1, 9]: inactive | IC50, NOX2 inhibition (NOX2 [2]): no activity

O=c1c2ccccc2[se]n1-c1ccccc1 [Ebselen]
Protein mass increase (ΔMW relative to p47phox^SH3A–B) (p47phox^SH3A−B; 200 µM compound, 0.2 mg/mL p47phox^SH3A−B, HBST): 274 Da | Conversion of p47phox^SH3A−B to molecular adduct (p47phox^SH3A−B; 200 µM, HBST): fully converted | IC50 [3]: 0.3 µM

N=C(N)NCCC[C@@H](CCCCC1CC1)NC(=O)[C@@H]1CCCN1C(=O)[C@@H]1CCCN1C(=O)[C@@H]1CCCN1C(=O)CCC(=O)Nc1cccc(-c2ccc(Cl)c(Cl)c2)c1 [compound 2]
Kd (SH3A−B domain of p47phox): 0.043 µM

OCc1cccc(O)c1O [compound 15]
Activity in the FP assay [1, 9]: inactive | IC50 (NOX2 [2]; read-out: IC50, NOX2 inhibition): 63 µM

O=C(OCc1cccc(O)c1O)c1ccc(O)c(CO)c1 [LMH001]
Activity in the FP assay ([1]; up to 400 µM, 1×HBST, Cy5 or TAMRA probe, 2 or 20 min incubation): did not show any activity | Activity in the FP assay in pure water ([1]; water instead of 1×HBST, Cy5 or TAMRA probe, 2 or 20 min): did not result in any measurable activity | Degradation in the HBST buffer as function of pH ([4]; 1×HBST pH 6 to 8, 30 min): increased with pH | LMH001 remaining ([4]; H2O, 5 min): 86% | LMH001 remaining ([4]; H2O, 30 min): 76% | LMH001 remaining ([4]; HBST, 5 min, 100 µM, relative to MeCN 5 min): 13% | LMH001 remaining ([4]; HBST, 30 min): 3% | p47phox^SH3A−B modified (p47phox^SH3A−B; 200 µM (17-fold molar excess), HBST): 20%–30% | Conversion of p47phox^SH3A−B to adduct (p47phox^SH3A−B; 200 µM, water): negligible conversion | IC50 (GST-p47phox^SH3A−B): 0.149 µM | Ki (GST-p47phox^SH3A−B; read-out: Ki (FP)): 0.054 µM | IC50 (NOX2 [5]): […] | half-life [6]: 2.52 min

B1: cyanine 5 (Cy5)-p22phox^149-162 (peptide)
chain: Cy5-KQPPTNPPPRPPAE
Kd [7]: 1.9 µM | Kd [8]: 12 µM

B2: carboxytetramethylrhodamine (TAMRA)-p22phox^151-162 (peptide)
chain: {TAMRA}-PPTNPPPRPPAE
Kd [7]: 7 µM | Kd [8]: 40 µM
